Reference: patent publication US8829185B2 (Bayer HealthCare LLC, priority 2005, dated 2014)

Assays:
FGFR1-GST = biological target: T1, FGFR1-GST (Homo sapiens, UniProt P11362); experiment: FGFR-1 TR-FRET biochemical assay
T1 construct: GST; made in house
In short: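 LANCE TR-FRET with 5 nM FGFR1-GST, 0.6 uM ATP, 25 nM biotin-poly GT in HEPES pH 7.5/MgCl2, 1% DMSO; compound added before enzyme, 1 h at room temperature. 665/615 nm ratio, background without ATP; % inhibition over 10 μM–0.128 nM final for IC50.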

[1] = tested on: histone 3 phosphorylation in colon carcinoma (HCT116); experiment: p-Histone3 assay; type: cell-based; settings: Homo sapiens, HCT-116, 24 h, HCT116, 24 hours treatment
Experimental: Compounds were assayed for the inhibition of histone 3 phosphorylation in colon carcinoma (HCT116). Briefly, 20,000 cells/well were seeded in a 96-well black-walled, poly-d-lysine plates in RPMI+10% FBS and incubated at 37° C. in 5% CO2 overnight. The following day, the cells were treated with compounds for 24 hours at 37° C. Following compound treatment; plates were centrifuged at 1000 rpm for 2 minutes and washed twice with 100 μl of cold sterile TBS. Cells were then fixed with cold 3.7% formaldehyde in TBS (4° C. for 1 hour) and then permeabalized with 0.1% Triton-X-100 in TBS (room temperature for 30 minutes). Plates were then washed with of 0.25% BSA-TBS and blocked with BSA solution for 1 hour at room temperature while shaking. The supernatant was removed and replaced with diluted primary antibody (anti-phospho-histone 3, serine 10, Cell Signaling) at 1:250 in 0.25% BSA-TBS and incubated overnight at 4° C. The plates were washed and treated with diluted secondary antibody (anti-rabbit Eu-labeled) at 1:10000 in 0.25% BSA-TBS (room temperature for 1 hour). The antibody solution was removed from each well and washed eight times. The wash buffer was replaced with 50 μl pre-warmed enhancement solution and mixed on the orbital shaker for 10 minutes. Fluorescence was detected with a Victor V Fluorescence Detector. The data are expressed as percent inhibition: % inhibition=100−((Signal with inhibitor-background)/(Signal without inhibitor-background))×100.

T1 sequence (P11362 22-822): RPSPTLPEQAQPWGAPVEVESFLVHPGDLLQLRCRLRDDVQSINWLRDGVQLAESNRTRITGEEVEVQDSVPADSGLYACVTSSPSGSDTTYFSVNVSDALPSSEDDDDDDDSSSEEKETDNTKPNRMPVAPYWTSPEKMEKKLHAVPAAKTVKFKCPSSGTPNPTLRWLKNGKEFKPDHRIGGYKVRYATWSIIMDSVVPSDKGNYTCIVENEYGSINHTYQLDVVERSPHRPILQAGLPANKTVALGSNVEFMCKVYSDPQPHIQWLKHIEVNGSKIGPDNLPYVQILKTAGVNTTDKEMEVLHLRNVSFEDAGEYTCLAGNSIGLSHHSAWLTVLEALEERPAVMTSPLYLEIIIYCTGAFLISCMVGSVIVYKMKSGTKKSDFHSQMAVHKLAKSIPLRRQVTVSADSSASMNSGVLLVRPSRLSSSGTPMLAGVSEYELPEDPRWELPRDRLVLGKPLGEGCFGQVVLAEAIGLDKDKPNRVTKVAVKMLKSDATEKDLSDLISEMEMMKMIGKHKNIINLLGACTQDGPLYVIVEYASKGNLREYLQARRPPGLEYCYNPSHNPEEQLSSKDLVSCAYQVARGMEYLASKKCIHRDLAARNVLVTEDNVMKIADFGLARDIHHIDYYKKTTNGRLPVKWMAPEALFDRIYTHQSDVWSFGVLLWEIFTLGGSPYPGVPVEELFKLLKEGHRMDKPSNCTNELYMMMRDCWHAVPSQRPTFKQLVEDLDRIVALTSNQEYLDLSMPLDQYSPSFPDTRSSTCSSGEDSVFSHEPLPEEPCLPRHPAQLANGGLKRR

| Compound | IC50 (FGFR1-GST; bounds given in nM) [nM] | IC50 ([1]; bounds given in μM) [µM] | IC50 ([1]; lower bound in nM) [µM] | IC50 (FGFR1-GST; upper bound in μM) [nM] |
| --- | --- | --- | --- | --- |
| CN1CCN(Cc2c(C(=O)NCC(F)(F)F)c(-c3ccc(NC(=O)Nc4cc(C(F)(F)F)ccc4F)cc3)c3c(N)ncnn23)CC1 [Example 10, 4-amino-5-{4-[({[2-fluoro-5-(trifluoromethyl)-phenyl]amino}carbonyl)amino]phenyl}-7-[(4-methylpiperazin-1-yl)methyl]-N-(2,2,2-trifluoroethyl)pyrrolo[2,1-f][1,2,4]triazine-6-carboxamide] | < 10 | < 5 | > 0.5 | – |
| COCc1c(-c2ccc(NC(=O)Nc3cc(C(F)(F)F)ccc3F)cc2)c2c(N)ncnn2c1CN1CCN(S(C)(=O)=O)CC1 [Example 20, N-[4-(4-amino-6-(methoxymethyl)-7-{[4-(methylsulfonyl)piperazin-1-yl]methyl}pyrrolo[2,1-f][1,2,4]triazin-5-yl)phenyl]-N′-[2-fluoro-5-(trifluoromethyl)phenyl]urea] | 10 to 100 | 5 to 10 | – | – |
| CN(C)Cc1c(C(=O)NCC(F)(F)F)c(-c2ccc(NC(=O)Nc3cccc(C(F)(F)F)n3)cc2)c2c(N)ncnn12 [Example 53, 4-amino-7-[(dimethylamino)methyl]-N-(2,2,2-trifluoroethyl)-5-{-4-[({[6-(trifluoromethyl)-pyridin-2-yl]amino}carbonyl)-amino]phenyl}pyrrolo[2,1-f][1,2,4]triazine-6-carboxamide] | – | < 5 | > 0.5 | – |
| Nc1ncnn2c(CN3CCOCC3)c(C(=O)NCC(F)(F)F)c(-c3ccc(NC(=O)Nc4cc(C(F)(F)F)ccc4F)cc3)c12 [Example 9, 4-amino-5-{4-[({[2-fluoro-5-(trifluoromethyl)-phenyl]amino}carbonyl)amino]phenyl}-7-(morpholin-4-ylmethyl)-N-(2,2,2-trifluoroethyl)pyrrolo[2,1-f][1,2,4]triazine-6-carboxamide] | < 10 | < 5 | > 0.5 | – |
| CCOC(=O)c1c(-c2ccc(NC(=O)Nc3cc(C(F)(F)F)ccn3)cc2)c2c(N)ncnn2c1-c1ccc(OC)cc1 [Example 4, ethyl 4-amino-7-(4-methoxyphenyl)-5-{4-[({[4-(trifluoromethyl)pyridin-2-yl]amino}carbonyl)amino]-phenyl}pyrrolo[2,1-f][1,2,4]triazine-6-carboxylate] | 10 to 100 | – | – | – |
| COCc1c(-c2ccc(NC(=O)Nc3cc(C(F)(F)F)ccc3Cl)cc2)c2c(N)ncnn2c1CN1CCOCC1 [Example 49, N-{4-[4-amino-6-(methoxymethyl)-7-(morpholin-4-ylmethyl)pyrrolo[2,1-f][1,2,4]triazin-5-yl]phenyl}-N′-[2-chloro-5-(trifluoromethyl)phenyl]urea] | 10 to 100 | – | – | – |
| Nc1ncnn2c(CN3CCOCC3)c(-c3cnco3)c(-c3ccc(NC(=O)Nc4cc(C(F)(F)F)ccc4F)cc3)c12 [Example 26, N-4-[4-amino-7-(morpholin-4-ylmethyl)-6-(1,3-oxazol-5-yl)pyrrolo[2,1-f][1,2,4]triazin-5-yl]phenyl-N′-[2-fluoro-5-(trifluoromethyl)phenyl]urea] | < 10 | – | – | – |
| Nc1ncnn2c(CN3CCOCC3)c(-c3cnco3)c(-c3ccc(NC(=O)Nc4cc(F)cc(C(F)(F)F)c4)cc3)c12 [Example 29, N-4-[4-amino-7-(morpholin-4-ylmethyl)-6-(1,3-oxazol-5-yl)pyrrolo[2,1-f][1,2,4]triazin-5-yl]phenyl-N′-[3-fluoro-5-(trifluoromethyl)phenyl]urea] | < 10 | – | – | – |
| COCc1c(-c2ccc(NC(=O)Nc3cc(C(F)(F)F)ccn3)cc2)c2c(N)ncnn2c1CN1CCC(F)(F)CC1 [Example 40, N-{4-[4-amino-7-[(4,4-difluoropiperidin-1-yl)methyl]-6-(methoxymethyl)pyrrolo[2,1-f][1,2,4]triazin-5-yl]phenyl}-N′-[4-(trifluoromethyl)pyridin-2-yl]urea] | > 100 | – | – | < 1000 |
| CC(=O)c1c(-c2ccc(NC(=O)Nc3ccc(OC(F)(F)F)cc3)c(F)c2)c2c(N)ncnn2c1CN1CCOCC1 [Example 59, N-4-[6-acetyl-4-amino-7-(morpholin-4-ylmethyl)pyrrolo[2,1-f][1,2,4]triazin-5-yl]-2-fluorophenyl-N′-[4-(trifluoromethoxy)phenyl]urea] | 10 to 100 | – | – | – |
| N#Cc1c(C(=O)O)c(-c2ccc(NC(=O)Nc3cc(C(F)(F)F)ccn3)cc2)c2c(N)ncnn12 [Example 8, 4-amino-7-cyano-5-{4-[({[4-(trifluoromethyl)pyridin-2-yl]amino}carbonyl)amino]phenyl}pyrrolo[2,1-f][1,2,4]triazine-6-carboxylic acid] | > 100 | – | – | < 1000 |
| COCc1c(-c2ccc(NC(=O)Nc3cc(C(F)(F)F)ccc3F)c(F)c2)c2c(N)ncnn2c1CN1CCOCC1 [Example 45, N-{4-[4-amino-6-(methoxymethyl)-7-(morpholin-4-ylmethyl)pyrrolo[2,1-f][1,2,4]triazin-5-yl]-2-fluorophenyl}-N′-[2-fluoro-5-(trifluoromethyl)phenyl]urea] | < 10 | – | – | – |

Results, then the compound that gave them:

| IC50 (FGFR1-GST; bounds given in nM) [nM] | IC50 ([1]; bounds given in μM) [µM] | IC50 ([1]; lower bound in nM) [µM] | IC50 (FGFR1-GST; upper bound in μM) [nM] | Compound |
| --- | --- | --- | --- | --- |
| 10 to 100 | 5 to 10 | – | – | Nc1ncnn2c(CN3CCOCC3)c(CO)c(-c3ccc(NC(=O)Nc4cc(C(F)(F)F)ccn4)cc3)c12 [Example 62, N-{4-[4-amino-6-(hydroxymethyl)-7-(morpholin-4-ylmethyl)pyrrolo[2,1-f][1,2,4]triazin-5-yl]phenyl}-N′-[4-(trifluoromethyl)-pyridin-2-yl]urea] |
| < 10 | – | – | – | N#CCc1c(-c2ccc(NC(=O)Nc3cc(C(F)(F)F)ccc3F)cc2)c2c(N)ncnn2c1CN1CCNCC1 [Example 75, N-(4-{4-amino-6-(cyanomethyl)-7-(piperazin-1-ylmethyl)pyrrolo[2,1-f][1,2,4]triazin-5-yl}phenyl)-N′-[2-fluoro-5-(trifluoromethyl)phenyl]urea] |
| 10 to 100 | – | – | – | Nc1ncnn2c(CN3CCOCC3)c(C(F)F)c(-c3ccc(NC(=O)Nc4cc(C(F)(F)F)ccc4F)c(F)c3)c12 [Example 99, N-{4-[4-amino-6-(difluoromethyl)-7-(morpholin-4-ylmethyl)-pyrrolo[2,1-f][1,2,4]triazin-5-yl]-2-fluorophenyl}-N′-[2-fluoro-5-(trifluoromethyl)phenyl]urea] |
| < 10 | – | – | – | Cc1cc(-c2c(C)c(CN3CCCOCC3)n3ncnc(N)c23)ccc1NC(=O)Nc1cc(C(F)(F)F)ccc1F [Example 126, 1-{4-[4-amino-6-methyl-7-(1,4-oxazepan-4-ylmethyl)pyrrolo[2,1-f][1,2,4]triazin-5-yl]-2-methylphenyl}-3-[2-fluoro-5-(trifluoromethyl)-phenyl]urea] |
| > 100 | – | – | < 1000 | CON(C)C(=O)c1c(-c2ccc(NC(=O)Nc3cc(C(F)(F)F)ccn3)cc2)c2c(N)ncnn2c1CN1CCOCC1 [Example 97, 4-amino-N-methoxy-N-methyl-7-(morpholin-4-ylmethyl)-5-{4-[({[4-(trifluoromethyl)pyridin-2-yl]amino}carbonyl)-amino]phenyl}pyrrolo[2,1-f][1,2,4]triazine-6-carboxamide] |
| < 10 | – | – | – | N#CCc1c(-c2ccc(NC(=O)Nc3cc(C(F)(F)F)ccc3Cl)c(F)c2)c2c(N)ncnn2c1CN1CCS(=O)(=O)CC1 [Example 83, N-(4-{4-amino-6-(cyanomethyl)-7-[(1,1-dioxidothiomorpholin-4-yl)methyl]pyrrolo[2,1-f][1,2,4]triazin-5-yl}-2-fluorophenyl)-N′-[2-chloro-5-(trifluoromethyl)phenyl]urea] |
| < 10 | – | – | – | Nc1ncnn2c(CN3CCOCC3)c(Cl)c(-c3ccc(NC(=O)Nc4cc(C(F)(F)F)ccn4)c(F)c3)c12 [Example 158, N-{4-[4-amino-6-chloro-7-(morpholin-4-ylmethyl)pyrrolo[2,1-f][1,2,4]triazin-5-yl]-2-fluorophenyl}-N′-[4-(trifluoromethyl)pyridin-2-yl]urea] |
| 10 to 100 | – | – | – | Cc1c(-c2cc(F)c(NC(=O)Nc3cc(C(F)(F)F)ccc3F)cc2F)c2c(N)ncnn2c1CN1CCOCC1 [Example 123, N-{4-[4-amino-6-methyl-7-(morpholin-4-ylmethyl)pyrrolo[2,1-f][1,2,4]triazin-5-yl]-2,5-difluorophenyl}-N′-[2-fluoro-5-(trifluoromethyl)-phenyl]urea] |
| < 10 | – | – | – | Cc1cc(-c2c(C)c(CN3CCCOCC3)n3ncnc(N)c23)ccc1NC(=O)Nc1cc(C(F)(F)F)ccn1 [Example 124, N-{4-[4-amino-6-methyl-7-(1,4-oxazepan-4-ylmethyl)pyrrolo[2,1-f][1,2,4]triazin-5-yl]-2-methylphenyl}-N′-[4-(trifluoromethyl)pyridin-2-yl]urea] |
| 10 to 100 | – | – | – | CC(=O)c1c(-c2ccc(NC(=O)Nc3cc(C(F)(F)F)ccn3)cc2)c2c(N)ncnn2c1CN1CCN(C)CC1 [Example 96, N-(4-{6-acetyl-4-amino-7-[(4-methylpiperazin-1-yl)methyl]pyrrolo[2,1-f][1,2,4]triazin-5-yl}phenyl)-N′-[4-(trifluoromethyl)-pyridin-2-yl]urea] |
